{
  "source": "patent US7928060B2",
  "about": "“Amylin family polypeptide-6 (AFP-6) analogs and methods of making and using them” (Amylin Pharmaceuticals, Inc., priority 2004, dated 2011)",
  "key": {"[1]": {"target": "adrenomedullin receptor (Homo sapiens, UniProt O60895+Q16602)", "sequence (Q16602 23-461)": "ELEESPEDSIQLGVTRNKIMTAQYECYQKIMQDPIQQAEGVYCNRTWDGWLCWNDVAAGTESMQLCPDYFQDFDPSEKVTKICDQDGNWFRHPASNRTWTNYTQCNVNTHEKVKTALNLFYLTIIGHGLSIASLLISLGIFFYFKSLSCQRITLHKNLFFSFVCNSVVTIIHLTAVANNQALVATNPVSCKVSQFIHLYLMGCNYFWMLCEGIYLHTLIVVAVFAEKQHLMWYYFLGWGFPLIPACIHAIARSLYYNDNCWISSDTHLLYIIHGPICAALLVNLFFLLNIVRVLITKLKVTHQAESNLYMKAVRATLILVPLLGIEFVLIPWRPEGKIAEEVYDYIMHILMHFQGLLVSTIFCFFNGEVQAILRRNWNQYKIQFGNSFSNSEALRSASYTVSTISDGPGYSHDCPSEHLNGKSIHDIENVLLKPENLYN", "sequence (O60895 43-175)": "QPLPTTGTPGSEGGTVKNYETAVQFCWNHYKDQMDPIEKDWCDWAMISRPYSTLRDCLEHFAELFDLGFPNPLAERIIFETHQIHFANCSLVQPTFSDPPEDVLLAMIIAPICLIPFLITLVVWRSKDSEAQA", "assay": "cAMP production in HUVECs (AlphaScreen)", "type": "cell-based", "parameters": "tested for bioactivity in HUVECs that contain the adrenomedullin receptor; endogenous in cells; host or cells: HUVEC"}, "[2]": {"system": "Harlan Sprague Dawley rats", "assay": "gastric emptying rate in conscious rats (3H-glucose gavage)", "type": "in vivo, rat", "details": "subcutaneous", "experimental": "Male Harlan Sprague Dawley® rats, 237-317 g, were housed with a 12:12 hour light:dark cycle. The experiment was carried out during the light cycle. At time=0 min, test peptide (amylin or AFP-6) at 6.3, 20, 63, 200, 632, and 1122 μg/kg or vehicle was injected (subcutaneous) into conscious rats (n=6/group). At t=5 min, a solution of 1 mL sterile water containing 5 μCi D-[3-^3H] glucose was gavaged by oropharyngeal tube to conscious rats. Blood samples were collected 30 min after gavage and assayed for counts per minute (CPM) in plasma. 20% benzocaine liquid topical anesthetic was used to eliminate pain during sampling. (Gedulin et al. (1995) Gastroenterology 108:A604). The appearance of counts in plasma is a reflection of the rate of gastric emptying. Significance of difference (p<0.05) was determined by ANOVA."}, "[3]": {"system": "calcitonin receptor", "assay": "cAMP production in CHO cells (AlphaScreen)", "type": "cell-based", "details": "for EC50: CHO, 30,000 cells/well"}, "[4]": {"target": "T1, CGRP receptors (Homo sapiens, UniProt O60894+Q16602)", "T1 construct": "membranes prepared from SK-N-MC cells, known to express CGRP receptors; endogenous in cells; host or cells: SK-N-MC cell membranes", "T1 sequence (Q16602 23-461)": "as the sequence (Q16602 23-461) above", "T1 sequence (O60894 27-148)": "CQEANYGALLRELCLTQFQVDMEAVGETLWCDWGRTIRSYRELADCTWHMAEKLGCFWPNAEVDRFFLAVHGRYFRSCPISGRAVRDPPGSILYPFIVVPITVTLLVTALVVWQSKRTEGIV", "assay": "CGRP radioligand binding assay (125I-hCGRP, SK-N-MC cell membranes)", "details": "FIG. 11"}, "[5]": {"target": "T2, calcitonin receptor (Homo sapiens, UniProt P30988)", "T2 sequence (P30988 25-474)": "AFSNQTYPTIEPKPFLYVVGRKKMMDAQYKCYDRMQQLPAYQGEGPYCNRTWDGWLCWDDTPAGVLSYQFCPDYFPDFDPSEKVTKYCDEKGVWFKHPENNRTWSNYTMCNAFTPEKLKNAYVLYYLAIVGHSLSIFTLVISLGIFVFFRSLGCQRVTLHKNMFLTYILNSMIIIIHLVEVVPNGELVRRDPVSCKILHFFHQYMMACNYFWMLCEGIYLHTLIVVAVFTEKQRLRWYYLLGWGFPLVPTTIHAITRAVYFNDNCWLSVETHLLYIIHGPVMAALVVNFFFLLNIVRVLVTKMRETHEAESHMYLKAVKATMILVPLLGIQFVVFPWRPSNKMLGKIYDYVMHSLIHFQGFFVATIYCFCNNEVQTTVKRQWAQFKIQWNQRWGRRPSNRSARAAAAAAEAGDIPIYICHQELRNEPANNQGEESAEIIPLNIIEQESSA", "assay": "cAMP production in T47D cells (AlphaScreen)", "source_text": "Data from three exemplary independent alpha screen assays are summarized with EC50 values calculated in PRISM."}, "[6]": {"system": "NIH/Swiss mice", "assay": "acute food intake assay in overnight-fasted mice, IP injection", "type": "in vivo, mouse", "experimental": "The effect of AFP-6 on food intake was investigated using an acute food intake assay. This assay measured food consumption in lean, group-housed, overnight-fasted NIH/Swiss mice. 12 mice were housed 3 to a cage. The sample compound, in this case AFP-6, was injected IP in mice and food intake was measured during the next 2-hours. Decreased, as well as increased, food intake can be measured. Testing various doses of the compound generated ED50's. The assay was performed as follows: 1. Remove food (water ad libitum) at 5:00 pm the evening before the study. 2. Weigh food pellets (3 pellets/cage). 3. Inject animals intraperitoneally with 200 ul of appropriate solution, t=0. 4. Immediately add pre-weighed food to each cage (away from water bottle spout) and allow animals to feed undisturbed. 5. At 30, 60, and 120 minutes, collect and weigh food. 6. Analyze data. Data points represent mean ±sd of n=12.\nTwelve mice were injected IP at t=0 for each dose, 0.3, 1, 3, 10, 30, 100, or 300 nmol/kg of AFP-6 (Amylin Pharmaceuticals, Inc.) (n=12/group). Food was introduced immediately after injection and amount consumed measured at t=30, 60, and 120 min."}, "[7]": {"target": "T3, amylin receptors (Rattus norvegicus, UniProt P32214)", "T3 construct": "This basal forebrain tissue, containing the nucleus accumbens and surrounding regions, was weighed and homogenized; from tissue; host or cells: rat basal forebrain (nucleus accumbens) membranes, male Sprague-Dawley rats", "T3 sequence (P32214 25-516)": "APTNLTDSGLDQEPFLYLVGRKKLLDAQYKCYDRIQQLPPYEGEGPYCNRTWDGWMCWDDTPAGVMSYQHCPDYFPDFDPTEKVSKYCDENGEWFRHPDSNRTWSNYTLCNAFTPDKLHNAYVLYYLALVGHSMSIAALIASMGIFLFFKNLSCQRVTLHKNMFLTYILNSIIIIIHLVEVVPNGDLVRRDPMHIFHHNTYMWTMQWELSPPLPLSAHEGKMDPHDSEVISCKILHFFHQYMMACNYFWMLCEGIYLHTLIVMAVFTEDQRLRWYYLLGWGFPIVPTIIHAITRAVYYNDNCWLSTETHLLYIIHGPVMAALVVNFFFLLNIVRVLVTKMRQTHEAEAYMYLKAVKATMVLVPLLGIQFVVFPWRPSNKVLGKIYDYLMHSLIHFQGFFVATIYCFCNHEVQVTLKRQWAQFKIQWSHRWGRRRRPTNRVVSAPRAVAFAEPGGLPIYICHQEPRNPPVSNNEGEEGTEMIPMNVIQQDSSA", "assay": "amylin radioligand binding assay (125I-rat amylin, nucleus accumbens membranes)", "details": "FIG. 10", "summary_of_the_method": "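Membranes from male Sprague-Dawley rat brain region rostral to hypothalamus, washed and resuspended in 20 mM HEPES with 0.2 mM PMSF. Incubation 60 min at 2 C, then filtration with cold PBS washes.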"}},
  "note": "Read-outs that look alike come from different tables or passages of the source.",
  "data": [
    {"smiles": "CSCC[C@H](NC(=O)[C@H](CC(C)C)NC(=O)[C@H](CCC(N)=O)NC(=O)[C@H](Cc1c[nH]c2ccccc12)NC(=O)[C@H](CC(C)C)NC(=O)[C@H](CCCNC(=N)N)NC(=O)[C@H](Cc1c[nH]cn1)NC(=O)[C@H](CO)NC(=O)[C@H](CC(C)C)NC(=O)[C@H](CC(N)=O)NC(=O)[C@H](CCC(N)=O)NC(=O)[C@@H](NC(=O)[C@H](CCC(N)=O)NC(=O)[C@@H]1CSSC[C@H](NC(=O)CNC(=O)[C@@H](NC(=O)[C@H](CCCNC(=N)N)NC(=O)[C@H](CC(C)C)NC(=O)[C@H](CC(C)C)NC(=O)[C@H](CCC(N)=O)NC(=O)[C@H](C)NC(=O)[C@H](CCC(N)=O)NC(=O)[C@@H](N)[C@@H](C)O)C(C)C)C(=O)N[C@@H](C(C)C)C(=O)N[C@@H](CC(C)C)C(=O)NCC(=O)N[C@@H]([C@@H](C)O)C(=O)N1)C(C)C)C(=O)NCC(=O)N1CCC[C@H]1C(=O)N[C@@H](C)C(=O)NCC(=O)N[C@@H](CCCNC(=N)N)C(=O)N[C@@H](CCC(N)=O)C(=O)N[C@@H](CC(=O)O)C(=O)N[C@@H](CO)C(=O)N[C@@H](C)C(=O)N1CCC[C@H]1C(=O)N[C@H](C(=O)N[C@@H](CC(=O)O)C(=O)N1CCC[C@H]1C(=O)N[C@@H](CO)C(=O)N[C@@H](CO)C(=O)N1CCC[C@H]1C(=O)N[C@@H](Cc1c[nH]cn1)C(=O)N[C@@H](CO)C(=O)N[C@@H](Cc1ccc(O)cc1)C(N)=O)C(C)C", "note": "[SEQ ID NO: 1]", "values": [
      {"measurement": "increase of cAMP levels", "setting": "[1]; HUVECs, 1 μM and 10 nM", "result": "active in increasing cAMP levels"},
      {"measurement": "rank order of potency in HUVECs", "setting": "[1]; cAMP, FIG. 9", "result": "adrenomedullin >AFP-6>>CGRP alpha"},
      {"measurement": "ED50, inhibition of gastric emptying", "setting": "[2]", "result": 0.049, "unit": "mg/kg"},
      {"measurement": "EC50", "setting": "[3]; average of three experiments, read-out: Average EC50", "result": 9.63, "unit": "nM"},
      {"measurement": "EC50", "setting": "[3]; read-out: Experiment 1 EC50", "result": 11.3, "unit": "nM"},
      {"measurement": "EC50", "setting": "[3]; read-out: Experiment 2 EC50", "result": 10.6, "unit": "nM"},
      {"measurement": "EC50", "setting": "[3]; read-out: Experiment 3 EC50", "result": 7, "unit": "nM"},
      {"measurement": "rank order of potency in CHO cells", "setting": "[3]; cAMP, FIG. 9", "result": "AFP-6>adrenomedullin=CGRP alpha"},
      {"measurement": "rank order of potency, CHO cell experiments", "setting": "[3]; cAMP, panel of related peptides", "result": "calcitonin >AFP-6>amylin >hCGRP alpha>adrenomedullin"},
      {"measurement": "rank order, displacement of CGRP", "setting": "[4]", "result": "CGRP >adrenomedullin >AFP-6 >amylin>>calcitonin"},
      {"measurement": "rank order of potency, T47D cells", "setting": "[5]", "result": "calcitonin>amylin >AFP-6=hCGRP alpha>adrenomedullin"},
      {"measurement": "inhibition of food intake", "setting": "[6]; 1 mg/kg IP, mice", "result": 91, "unit": "%"},
      {"measurement": "ED50, short-term food intake", "setting": "[6]; 60 min time point, 0.3-300 nmol/kg IP, non-linear regression", "result": 19, "unit": "nmol/kg"},
      {"measurement": "FI 30 min ED50", "setting": "[6]; food intake, 30 min", "result": "9 to 14", "unit": "nmol/kg"},
      {"measurement": "FI 60 min ED50", "setting": "[6]; food intake, 60 min", "result": "14 to 19", "unit": "nmol/kg"},
      {"measurement": "rank order of potency, displacement of bound amylin", "setting": "[7]", "result": "amylin >CGRP>AFP-6 >>adrenomedullin>calcitonin"}
    ]}
  ]
}
